The subject of series [1] is 11βHSD1 in the eyes. The settings on record: healthy volunteers, after seven days of treatment; cited from earlier work.

SMILES strings stand for the structures. Where a name gives a salt, the structure may show the parent alone.

What is called melting point is the temperature, or range, at which the solid turns liquid.

Compound `NC[C@]12CC3CC(C1)[C@H](NC(=O)N1CCN(c4ccc(N5CCN(S(=O)(=O)C6CC6)CC5)cn4)c4ccccc41)C(C3)C2` (as salt: hydrochloride) showed a melting point of 197 °C. Consider `CC1(C)[C@@H](OC(=O)CCC(=O)O)CC[C@]2(C)[C@H]3C(=O)C=C4[C@@H]5C[C@@](C)(C(=O)O)CC[C@]5(C)CC[C@@]4(C)[C@]3(C)CC[C@@H]12` [carbenoxolone], for which, in series [1], the “IOP is reduced by” value is on record as 18%. For the compound `CC(C)(C)N1CCN(c2ccc(N3CCN(C(=O)N[C@H]4C5CC6CC4C[C@@](CNS(C)(=O)=O)(C6)C5)c4ccccc43)nc2)CC1` (as salt: hydrochloride), the melting point was 252 °C. Turning to `NC(=O)C[C@]12CC3CC(C1)[C@H](NC(=O)N1CCN(c4ccc(N5CCN(S(=O)(=O)C6CC6)CC5)cn4)c4ccccc41)C(C3)C2`, the melting point lay in the range of 120 to 135 °C. `CONC(=O)[C@]12CC3CC(C1)[C@H](NC(=O)N1CCN(c4ccc(N5CCN(S(=O)(=O)C6CC6)CC5)cn4)c4ccccc41)C(C3)C2` yielded a melting point of 125 to 163 °C.

Regarding `CC(C)(C)N1CCN(c2ccc(N3CCN(C(=O)N[C@H]4C5CC6CC4C[C@@](C(O)C(F)(F)F)(C6)C5)c4ccccc43)nc2)CC1` (stereo partly drawn), the melting point was 192 to 196 °C. For the compound `CC(C)(C)N1CCN(c2ccc(N3CCN(C(=O)N[C@H]4C5CC6CC4C[C@@](NS(C)(=O)=O)(C6)C5)c4ccccc43)nc2)CC1`, the melting point came out at 165 °C. On the same count and under the same terms, for `CC(C)(C)N1CCN(c2ccc(N3CCN(C(=O)N[C@H]4C5CC6CC4C[C@@](Cc4nn[nH]n4)(C6)C5)c4ccccc43)nc2)CC1` the value was 160 to 170 °C. On to `Cc1noc([C@]23CC4CC(C2)[C@H](NC(=O)N2CCN(c5ccc(N6CCN(S(=O)(=O)C7CC7)CC6)cn5)c5ccccc52)C(C4)C3)n1`, for which the melting point came to 135 °C.
